Test results: patent publication EP1072948B1, “Thermally processed image recording material” (FUJIFILM Corporation, priority 1999, dated 2001)

Key:
[1] = Example 1: image storage stability 1 (developed material stored in the dark); conditions: 24 hours, relative humidity 50%
Method: (§1) After each thermally processed image recording material was light-exposed by a laser sensitometer (details are given below), the thermally processed image recording material was treated at 118°C for 5 seconds and then treated at 122°C for 16 seconds (heat development).
(§2) The evaluation of the image obtained was performed by using a Macbeth TD904 densitometer (visible density). The measurement results were evaluated as Dmin, sensitivity (evaluated by a relative value of a reciprocal of a ratio of exposure amounts giving a density higher than Dmin by 1.0, and the sensitivity of the thermally processed image recording material of Experiment No. 1 shown in Table 1 below was defined as 100), Dmax, and gradation (contrast) (fresh photographic properties). The contrast was expressed by a gradient of a straight line connecting the points at the densities from which the value for Dmin was subtracted, 0.5 and 1.5, with the abscissa being a logarithm of the exposure amount.

[2] = Example 2: image storage stability 2 (developed material stored under light irradiation); conditions: 24 hours, 10,000 luces, relative humidity 50%
Method: (§3) Each light-exposed thermally processed image recording material was heat-developed by using a heat-developing apparatus as shown in Fig.1. The roller surface material of the heat development section was composed of silicone rubber, and the flat surface consisted of Teflon non-woven fabric. The heat development was performed at a transportation linear speed of 20 mm/second and a temperature of 90-110°C in the preheating section for 15 seconds (driving units of the preheating section and the heat development section were independent from each other, and speed difference as to the heat development section was adjusted to -0.5% to -1%), and 120°C for 20 seconds in the heat development section, and for 15 seconds in the gradual cooling section. The temperature precision as for the transverse direction was ±1°C.
as §2, with “0.3” for “0.5”

[3] = Example 1: image storage stability 2 (developed material stored under light irradiation); conditions: 24 hours, 10,000 luces, relative humidity 50%
Method: as §1, §2

[4] = Example 2: image storage stability 1 (developed material stored in the dark); conditions: 24 hours, relative humidity 50%
Method: as §3
as §2, with “0.3” for “0.5”

Row | Compound | Image storage stability-1 (stored in dark, 60°C, 50%) Dmax ([1]; Table 1, 1.6×10^-1 mol/mol-Ag) | Image storage stability-1 (stored in dark, 60°C, 50%) Dmin ([1]; Table 1, 1.6×10^-1 mol/mol-Ag) | Image storage stability-2 (stored in light, 40°C, 50%) Dmax ([2]; Table 3, 8×10^-2 mol/mol-Ag) | Image storage stability-2 (stored in light, 40°C, 50%) Dmin ([2]; Table 3, 8×10^-2 mol/mol-Ag) | Image storage stability-2 (stored in light, 40°C, 50%) Dmax ([3]; Table 1, 1.6×10^-1 mol/mol-Ag) | Image storage stability-2 (stored in light, 40°C, 50%) Dmin ([3]; Table 1, 1.6×10^-1 mol/mol-Ag) | Image storage stability-1 (stored in dark, 60°C, 50%) Dmax ([4]; Table 3, 8×10^-2 mol/mol-Ag) | Image storage stability-1 (stored in dark, 60°C, 50%) Dmin ([4]; Table 3, 8×10^-2 mol/mol-Ag) | Image storage stability-1 (stored in dark, 60°C, 50%) Dmax ([1]; Table 2, 1.6×10^-1 mol/mol-Ag) | Image storage stability-1 (stored in dark, 60°C, 50%) Dmin ([1]; Table 2, 1.6×10^-1 mol/mol-Ag) | Image storage stability-2 (stored in light, 40°C, 50%) Dmax ([2]; Table 4, 8×10^-2 mol/mol-Ag) | Image storage stability-2 (stored in light, 40°C, 50%) Dmin ([2]; Table 4, 8×10^-2 mol/mol-Ag) | Image storage stability-2 (stored in light, 40°C, 50%) Dmax ([3]; Table 2, 1.6×10^-1 mol/mol-Ag) | Image storage stability-2 (stored in light, 40°C, 50%) Dmin ([3]; Table 2, 1.6×10^-1 mol/mol-Ag) | Image storage stability-1 (stored in dark, 60°C, 50%) Dmax ([4]; Table 4, 8×10^-2 mol/mol-Ag) | Image storage stability-1 (stored in dark, 60°C, 50%) Dmin ([4]; Table 4, 8×10^-2 mol/mol-Ag)
1 | CCCCCCOCCN(CC)C(=O)c1cccc(S(=O)(=O)C(Br)(Br)Br)c1 [Comparative Compound 1] | 2.1 | 0.17 | 3.2 | 0.08 | 2.5 | 0.17 | 2.7 | 0.08 |  |  |  |  |  |  |  | 
2 | CCNC(=O)c1ccccc1S(=O)(=O)C(Br)(Br)Br [Comparative Compound 3] | 2.9 | 0.41 | 4.1 | 0.15 | 3.0 | 0.25 | 4.1 | 0.35 |  |  |  |  |  |  |  | 
3 | CCCCCCCCCCCCCCCCNC(=O)c1cccc(S(=O)(=O)C(Br)(Br)Br)c1 [Comparative Compound (1)] |  |  |  |  |  |  |  |  | 2.8 | 0.54 | 3.4 | 0.22 | 2.8 | 0.43 | 3.6 | 0.35
4 | O=C(c1cccc(S(=O)(=O)C(Br)(Br)Br)c1)N1CCCC1 [Comparative Compound (3)] |  |  |  |  |  |  |  |  | 2.9 | 0.42 | 3.6 | 0.23 | 3.0 | 0.40 | 3.6 | 0.44
5 | CCCCCCCCN(CCCCCCCC)S(=O)(=O)c1ccc(S(=O)(=O)C(Br)(Br)Br)cc1 [Comparative Compound (4)] |  |  |  |  |  |  |  |  | 2.8 | 0.59 | 3.6 | 0.25 | 2.9 | 0.47 | 3.7 | 0.39
6 | CCCCCCCCCCCCN(CCCCCCCCCCCC)C(=O)c1cc(S(C)(=O)=O)ccc1S(=O)(=O)C(Br)(Br)Br [Comparative Compound (5)] |  |  |  |  |  |  |  |  | 2.8 | 0.60 | 3.7 | 0.29 | 2.9 | 0.50 | 3.7 | 0.43
7 | CCOCCNC(=O)c1cccc(S(=O)(=O)C(Br)(Br)Br)c1 [P'-1] |  |  |  |  |  |  |  |  | 3.0 | 0.18 | 4.0 | 0.08 | 3.0 | 0.17 | 3.9 | 0.09
8 | CCCCOCCCNC(=O)c1cccc(S(=O)(=O)C(Br)(Br)Br)c1 [P'-15] |  |  |  |  |  |  |  |  | 3.0 | 0.18 | 4.0 | 0.07 | 3.0 | 0.17 | 3.9 | 0.09
9 | CCC(CC)NC(=O)c1cccc(S(=O)(=O)C(Br)(Br)Br)c1 [P'-18] |  |  |  |  |  |  |  |  | 3.0 | 0.17 | 4.0 | 0.08 | 3.0 | 0.17 | 3.9 | 0.09
10 | CCCC(C)NC(=O)c1cccc(S(=O)(=O)C(Br)(Br)Br)c1 (centres unmarked) [P'-20] |  |  |  |  |  |  |  |  | 3.0 | 0.17 | 4.0 | 0.07 | 3.0 | 0.17 | 3.9 | 0.09
11 | COCCCNC(=O)c1cccc(S(=O)(=O)C(Br)(Br)Br)c1 [P-11] | 2.9 | 0.17 | 4.0 | 0.08 | 3.0 | 0.17 | 3.9 | 0.09 |  |  |  |  |  |  |  | 
12 | CCCCNS(=O)(=O)c1cccc(S(=O)(=O)C(Br)(Br)Br)c1 [P-18] | 3.0 | 0.20 |  |  | 3.0 | 0.20 |  |  |  |  |  |  |  |  |  | 
